# Measured values as given in patent publication US20070117840A1, “Receptor antagonist” (priority 2004, published 2007).
# How the values were obtained:
# human-type OT7T022 [1] = target: T1, human-type OT7T022 (Homo sapiens, UniProt Q9GZQ6); assay: Antagonist activity in cAMP production inhibiting test system using human-type OT7T022-expressing CHO cell; format: cell-based; conditions: intracellular cAMP, agonist human-type RFRP-3-8 20 nM, forskolin 2 μM
# T1 construct: expressed in transfected cells; host or cells: CHO cells (membrane fraction)
# T1 sequence (Q9GZQ6 whole entry): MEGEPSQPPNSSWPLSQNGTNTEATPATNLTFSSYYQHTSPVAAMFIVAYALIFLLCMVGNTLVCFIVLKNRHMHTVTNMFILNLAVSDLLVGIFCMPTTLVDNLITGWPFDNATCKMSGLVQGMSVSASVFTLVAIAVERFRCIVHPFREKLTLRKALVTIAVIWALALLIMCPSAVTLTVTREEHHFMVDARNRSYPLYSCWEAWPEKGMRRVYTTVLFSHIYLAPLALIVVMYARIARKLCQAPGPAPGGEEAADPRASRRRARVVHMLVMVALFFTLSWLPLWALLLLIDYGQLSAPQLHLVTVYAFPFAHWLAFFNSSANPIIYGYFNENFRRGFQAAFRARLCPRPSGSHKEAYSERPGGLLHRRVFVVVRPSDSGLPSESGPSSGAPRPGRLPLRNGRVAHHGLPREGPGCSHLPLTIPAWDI
# Experimental: Test of Antagonist Activity of Compound in cAMP Production Inhibiting Test System Using Human-Type OT7T022-Expressing CHO Cell
# Antagonist activity of a test compound was measured in an intracellular cAMP production inhibiting test system of a CHO cell expressing human-type OT7T022. In the cAMP production inhibiting test, as an assay buffer, a Hanks' balanced salt solution (Gibco) to which 20 mM HEPES pH 7.4, 0.1% bovine serum albumin, and 0.2 mM 3-isobutyl-1-methylxanthine (Sigma) had been added, was used. A sample compound was adjusted with an assay buffer so that the final concentration became 10^−5M, 10^−6M, 10^−7M, 10^−8M, or 10^−10M. […] A human-type OT7T022-expressing CHO cell was passaged on a 96-well plate at 4×10^4/well, and cultured at 37° C., 5% CO2 and 95% air for one day. The plate which had been cultured for one day was washed with an assay buffer (150 μl) two times and, after 30 minutes, this was cultured for 30 minutes at 37° C. and 100% air. After washed with an assay buffer (150 μl) two times, 50 μl of a sample compound solution and, then, 50 μl of an agonist+forskolin solution were added, the mixture was stirred well and, after 30 minutes, this was cultured for 30 minutes at 37° C. and 100% air. An intracellular cAMP amount was measured according to a protocol of the present kit using cAMP-Screen™ system (ABI). […]
# rat-type OT7T022 = target: T2, rat-type OT7T022 (Rattus norvegicus, UniProt Q9EP86); assay: Binding inhibiting activity using rat-type OT7T022-expressing CHO cell membrane fraction; conditions: iodine-labeled Y-RFRP-3 100 pM
# T2 construct: expressed in transfected cells; host or cells: CHO cells (membrane fraction)
# T2 sequence (Q9EP86 whole entry): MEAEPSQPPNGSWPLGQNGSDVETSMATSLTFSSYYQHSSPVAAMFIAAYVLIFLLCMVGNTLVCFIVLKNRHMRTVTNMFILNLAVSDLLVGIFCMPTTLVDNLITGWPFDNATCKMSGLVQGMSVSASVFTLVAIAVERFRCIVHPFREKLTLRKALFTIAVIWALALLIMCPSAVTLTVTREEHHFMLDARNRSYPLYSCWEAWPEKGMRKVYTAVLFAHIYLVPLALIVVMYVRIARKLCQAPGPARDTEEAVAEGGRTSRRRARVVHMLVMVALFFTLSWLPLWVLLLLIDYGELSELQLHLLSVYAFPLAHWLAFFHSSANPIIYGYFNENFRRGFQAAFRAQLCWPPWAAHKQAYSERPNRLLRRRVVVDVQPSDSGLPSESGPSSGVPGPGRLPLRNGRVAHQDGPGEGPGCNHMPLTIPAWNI
# Experimental: Assessment of Binding Inhibiting Activity of Test Compound Using Rat-Type OT7T022-Expressing CHO Cell
# (1) Preparation of Rat-Type OT7T022-Expressing CHO Cell Membrane Fraction
# A flask in which a rat-type OT7T022-expressing CHO cell had been cultured was washed with 5 mM EDTA/PBS, cells were peeled with 5 mM EDTA/PBS, and cells were recovered by centrifugation, suspended in 25 mL of a buffer for preparing a membrane fraction (50 mM Tris-HCl, pH 7.5, 5 mM EDTA, 0.5 mM PMSF (manufactured by Wako Pure Chemical Industries, Ltd.), […] leupeptin (manufactured by Peptide Laboratory), 0.1 μg/mL pepstatin A (manufactured by Peptide Laboratory), 4 μg/mL E-64 (manufactured by Peptide Laboratory)), and homogenized on an ice using Polytron (12,000 rpm, 15 seconds×3 times). This was centrifuged in a high speed cooling centrifuge at 4° C. and 1,000 g for 10 minutes, and the supernatant was recovered. 25 mL of a buffer for preparing a membrane fraction was added to precipitates, and the supernatant was recovered by the same procedure. […] The pellet was suspended in a small amount of a buffer for preparing a membrane fraction, this was suspended using a Teflon (registered trade mark) homogenizer, a protein amount was measured using a part, and the remaining was dispensed, and stored at −80° C. […]
# human-type OT7T022 [2] = target: T1, human-type OT7T022; assay: Binding inhibiting activity using human-type OT7T022-expressing CHO cell (125I-Y-RFRP-3); conditions: human-type OT7T022-expressing CHO cell membrane fraction, 125I-labeled Y-RFRP-3 100 pM; read-out: IC50 value (binding inhibiting rate)
# Experimental: Assessment of Binding Inhibiting Activity of Test Compound Using Human-Type OT7T022-Expressing CHO Cell
# (1) Preparation of Iodine-Labeled Entity of Human-Type RFRP-3 (Y-RFRP-3)
# A part thereof was 1/100 diluted, radioactivity was measured with a γ-counter, and the remaining authentic product was distributed, which was stored at −30° C.
# (2) Assessment of Binding Inhibiting Activity
# For measuring non-specific binding, non-labeled Y-RFRP-3 was further added to […]. Then, a membrane fraction was transferred to a unifilter GF/C (Perkin Elmer) by filtering the reaction solution using a cell harvester (Perkin Elmer), and this was washed with a cooled 50 mM Tris buffer (pH 7.5) five times. The filter was dried, Microsinti (Packard) was added to the filter, and radioactivity was measured with Topcount (Packard).
# A binding inhibiting rate (IC50 value) of a test compound is shown in [Table 1].
# [3] = Blood glucagon and insulin concentration after intravenous administration of RFRP-1 to rat; format: in vivo, Wistar male rat
# Text: (§1) In FIG. 2, (-∘-) represents a blood glucagon concentration of a physiological saline administration group, (-▴-) represents a blood glucagon concentration of an RFRP-1 1 nmol/kg administration group, and (-▪-) represents a blood glucagon concentration of an RFRP-1 10 nmol/kg administration group.
# as §1, with “3,” for “2,”, “insulin” for “glucagon”, “group. A value indicates mean±[…] (mean±SE) (n=4).” for “group.”
# Pancreatic Glucagon Secretion Promoting Activity of RFRP
# In order to study mechanism of blood glucose concentration increasing activity of RFRP-1, influence of RFRP-1 on a blood concentration of glucagon and insulin which are known as a hormone imparting a variation to a blood glucose concentration was studied. A mature Wistar male rat (weight 310 to 350 g at operation) was operated for collecting blood under free moving. Overnight after operation, 300 μl of a blood was collected using a tuberculin injection syringe having a dose of 1 ml and a 25 gauge injection needle (both Telmo) before administration of RFRP-1. […]
# [4] = Blood glucose concentration after intravenous administration of RFRP-1 to rat; format: in vivo, Wistar male rat; conditions: 10 nmol/kg, 5 minutes and 15 minutes after administration, compared with physiological saline group
# Text: In FIG. 1, (-∘-) represents a blood glucose concentration of a physiological saline administration group, (-▴-) represents a blood glucose concentration of an RFRP-1 1 nmol/kg administration group, and (-▪-) represents a blood concentration of an RFRP-1 10 nmol/kg administration group.
# Blood Glucose Concentration Increasing Activity of RFRP
# As RFRP, human RFRP-1 (37 amino acids) consisting of an amino acid sequence of 56th (Ser) to 92nd (Phe) of an amino acid sequence represented by SEQ ID No.: 3. Hereinafter, this peptide is abbreviated as RFRP-1.
# In order to study influence of peripheral administration of RFRP-1 on a blood glucose concentration, operation for collecting blood under free moving was performed. A mature Wistar male rat (weight 310 to 350 g at operation) was anesthetized with 50 mg/kg of pentobarbital by intraperitoneal administration. The rat was fixed on an anatomic pad in a supine position, and a left jugular vein was exposed. […]
# Overnight after operation, 300 μl of blood was collected using a tuberculin injection syringe having a dose of 1 ml and a 25 gauge injection needle (both Telmo) before administration of RFRP-1. […] A blood glucose concentration was measured using Fuji Drichem 3500 (FUJIFILM).
Molecule,IC50 (human-type OT7T022 [1]) [µM],IC50 (rat-type OT7T022) [µM],IC50 (human-type OT7T022 [2]) [µM],blood insulin concentration [3],blood glucose concentration [4]
"CC(C)(C)Cn1c(C(=O)OC(C)(C)C)c(O)c2ccc(F)cc2c1=O [Example 1, tert-Butyl 7-fluoro-4-hydroxy-2-neopentyl-1-oxo-1,2-dihydro-3-isoquinolinecarboxylate]",< 5,< 1,< 1,–,–
"CC(C)(C)Cn1c(C(=O)OC(C)(C)C)c(O)c2cc(Cl)c(Cl)cc2c1=O [Example 3, tert-Butyl 6,7-dichloro-4-hydroxy-2-neopentyl-1-oxo-1,2-dihydro-3-isoquinolinecarboxylate]",< 5,< 1,< 1,–,–
"CCCCOc1c(C(=O)OC(C)(C)C)n(CC(C)(C)C)c(=O)c2ccc(F)cc12 [Reference Example 12, tert-Butyl 4-butoxy-6-fluoro-2-neopentyl-1-oxo-1,2-dihydro-3-isoquinolinecarboxylate]",–,–,< 1,–,–
RFRP-1: human RFRP-1 (37 amino acids) consisting of 56th (Ser) to 92nd (Phe) of the amino acid sequence of SEQ ID No.: 3 (SLNFEELKDWGPKNVIKMSTPAVNKMPHSFANLPLRF; Human),–,–,–,not recognized,"significant (p<0.05, n=4) activity of increasing a blood glucose concentration"
